Drawing on patent US20260042764A1, “COMPOSITIONS AND METHODS FOR INHIBITION OF KRAS” (TheRas, Inc., priority 2022, published 2026), this text covers IC50 for 23 compounds.

Assay [1] addresses T1, Avi-KRAS G12D (2-169) GTP/RAF1 RBD-3xFLAG (51-131) (Homo sapiens, UniProt P01116, G12D).
T1 construct: Avi-KRAS G12D (2-169)
Nature of the assay: Raf1-KRAS G12D-GTP disruption HTRF assay (Biological Example 3). The format is binding. The following applies: KRAS G12D, GTP-loaded. The gist of the method: (§1)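 Each KRAS-GTP/RAF1 RBD complex at 50 nM, with 75 nM 3xFLAG-RAF1 RBD (51-131)-Avi, in 50 mM Tris pH 7.5, 100 mM NaCl, 5 mM MgCl2, 0.1% BSA, 0.01% Tween 20, 10% DMSO. Compounds titrated from 30 μM, 10-point 3x series; 1 h at room temperature with shaking. HTRF read, activity as percent of DMSO.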

The target in assay [2] is T2, Avi-KRAS G12V (1-169) GppNHp/RAF1 RBD-3xFLAG (52-151) (Homo sapiens, UniProt P01116, G12V).
T2 construct: Avi-KRAS G12V (1-169)
T2 sequence (P01116 1-169 isoform P01116-2 G12V): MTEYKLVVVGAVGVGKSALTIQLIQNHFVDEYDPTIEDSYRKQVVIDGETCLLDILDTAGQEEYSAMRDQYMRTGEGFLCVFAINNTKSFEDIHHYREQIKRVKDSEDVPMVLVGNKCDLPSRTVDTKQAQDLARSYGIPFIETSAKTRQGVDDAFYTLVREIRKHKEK
As to the kind of experiment: Raf1-KRAS G12V-GppNHP disruption HTRF assay (Biological Example 1). The format is binding. The gist of the method:
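Compounds were tested for disruption of KRAS–RAF1 RBD binding by HTRF in 50 mM Tris pH 7.5, 100 mM NaCl, 5 mM MgCl2, 0.1% BSA, 0.01% Tween, 10% DMSO. Protein mix was incubated 1 h at room temperature with shaking, then detection reagents added for another 1 h. Activity expressed as percent of DMSO control.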

Another assay relates to SW620 cells (KRAS G12V). As to the kind of experiment: Cell-based pERK HTRF assay in SW620 cell (Biological Example 4). In a few lines: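 This assay measures inhibition of ERK phosphorylation downstream of KRAS G12V in intact SW620 cells. Compounds are applied for 4 h over nine half-log concentrations starting at 1 μM, and pERK is quantified by HTRF.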
Assay [3] concerns the target T3, Avi-KRAS WT (2-169) GTP/RAF1 RBD-3xFLAG (51-131) (Homo sapiens, UniProt P01116).
T3 construct: Avi-KRAS WT (2-169)
Nature of the assay: Raf1-KRAS WT-GTP disruption HTRF assay (Biological Example 3). The format is binding. The following applies: KRAS WT, GTP-loaded. In a few lines: as §1

Setting [4] is: Homo sapiens, SW-620, SW620 (KRAS G12V) cells.
Where [5] appears, read: SW620 (KRAS G12V) cells, pERK HTRF.
[6] abbreviates: KRAS G12V, GppNHp-loaded, class symbols.
[7] abbreviates: Homo sapiens, SW-620, SW620 (KRAS G12V) cells, pERK HTRF, class symbols.
[8] abbreviates: KRAS G12V, GppNHp-loaded, Table 11.
[9] abbreviates: Homo sapiens, SW-620, SW620 (KRAS G12V) cells, pERK HTRF.

SMILES strings stand for the structures.

T1 sequence (P01116 2-169 isoform P01116-2 G12D): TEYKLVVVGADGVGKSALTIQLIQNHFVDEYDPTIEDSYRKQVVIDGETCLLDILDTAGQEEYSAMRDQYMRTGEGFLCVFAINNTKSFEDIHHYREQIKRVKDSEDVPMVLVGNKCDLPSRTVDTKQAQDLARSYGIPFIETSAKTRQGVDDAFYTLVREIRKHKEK
T3 sequence (P01116 2-169 isoform P01116-2): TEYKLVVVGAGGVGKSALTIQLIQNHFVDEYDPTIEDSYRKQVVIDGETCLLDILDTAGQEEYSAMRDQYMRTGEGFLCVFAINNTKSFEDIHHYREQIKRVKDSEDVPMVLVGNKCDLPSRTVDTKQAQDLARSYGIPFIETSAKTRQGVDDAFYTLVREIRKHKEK

As for `C[C@@H]1[C@H](N(C)c2nc(OC[C@@]34CCCN3C[C@H](F)C4)nc3c(F)c(-c4ccc(F)c5sc(N)c(C#N)c45)c(C(F)(F)F)cc23)CCN1C(=O)C1CC1` (atropisomer, axis not shown) [Compound 333], the IC50 in assay [1] is 100 to 1000 nM; in assay [2] (KRAS G12V-GppNHp/RAF1 RBD HTRF), 100 to 1000 nM; in the assay on SW620 cells (KRAS G12V) (setting [4]) it was under 100 nM; in the assay with SW620 cells (KRAS G12V) (setting [5]), under 100 nM; in assay [3], 100 to 1000 nM.
`CCC(=O)N1CC[C@@H](N(C)c2nc(OC[C@@]34CCCN3C[C@H](F)C4)nc3c(F)c(-c4ccc(F)c5sc(N)c(C#N)c45)c(C(F)(F)F)cc23)[C@H]1C` (atropisomer, axis not shown) [Compound 335]: the IC50 in assay [1] was 100 to 1000 nM; in assay [2] (KRAS G12V-GppNHp/RAF1 RBD HTRF), under 100 nM; in the assay with SW620 cells (KRAS G12V) (setting [4]), under 100 nM; with SW620 cells (KRAS G12V) (setting [5]) it was under 100 nM; in assay [3], 100 to 1000 nM.
In the case of `CCN(c1nc(OC[C@@]23CCCN2C[C@H](F)C3)nc2c(F)c(-c3ccc(F)c4sc(N)c(C#N)c34)c(C(F)(F)F)cc12)[C@H]1CCN(C(=O)[C@H]2CCO2)C1` (atropisomer, axis not shown) [Compound 577], the IC50 is at most 100 nM in assay [1]; under 100 nM in assay [2] (setting [6]); under 100 nM in the assay on SW620 cells (KRAS G12V) (setting [4]); under 100 nM with SW620 cells (KRAS G12V) (setting [7]); at most 100 nM in assay [3].
For `CCN(c1nc(OC[C@@]23CCCN2C[C@H](F)C3)nc2c(F)c(-c3ccc(F)c4sc(N)c(C#N)c34)c(C(F)(F)F)cc12)[C@H]1CCN(C(=O)C2CC2)[C@@H]1C` (atropisomer, axis not shown) [Compound 579], the 50% inhibitory concentration (IC50) in assay [1] is at most 100 nM; in assay [2] (setting [6]) it was under 100 nM; with SW620 cells (KRAS G12V) (setting [4]) it was under 100 nM; in the assay on SW620 cells (KRAS G12V) (setting [7]), under 100 nM; in assay [3] it was 100 to 1000 nM.
For the compound `CCN(c1nc(OC[C@@]23CCCN2C[C@H](F)C3)nc2c(F)c(-c3ccc(F)c4sc(N)c(C#N)c34)c(C(F)(F)F)cc12)[C@H]1CCN(C(=O)c2ncco2)C1` (atropisomer, axis not shown) [Compound 584], the IC50 (in assay [2] (setting [6]); in the assay with SW620 cells (KRAS G12V) (setting [7])) was under 100 nM throughout.
Turning to `CCN(c1nc(OC[C@@]23CCCN2C[C@H](F)C3)nc2c(F)c(-c3ccc(F)c4sc(N)c(C#N)c34)c(C(F)(F)F)cc12)[C@H]1C[C@@H](C)N(C(=O)C2COC2)C1` (atropisomer, axis not shown) [Compound 586], the IC50 in assay [1] is 100 to 1000 nM; in assay [2] (setting [6]) it was 100 to 1000 nM; in the assay on SW620 cells (KRAS G12V) (setting [4]), under 100 nM; in the assay on SW620 cells (KRAS G12V) (setting [7]), under 100 nM; in assay [3] it was 100 to 1000 nM.
For the compound `C[C@H](c1cccnc1N)N(C)c1nc(OC[C@@]23CCCN2C[C@H](F)C3)nc2c(F)c(-c3ccc(F)c4sc(N)c(C#N)c34)c(C(F)(F)F)cc12` (atropisomer, axis not shown) [Compound 600], the IC50 in assay [1] was at most 100 nM; in assay [2] (setting [6]), under 100 nM; in the assay with SW620 cells (KRAS G12V) (setting [4]), under 100 nM; with SW620 cells (KRAS G12V) (setting [7]) it was under 100 nM; in assay [3], 100 to 1000 nM.
For the compound `CCN(c1nc(OC[C@@]23CCCN2C[C@H](F)C3)nc2c(F)c(-c3ccc(F)c4sc(N)c(C#N)c34)c(C(F)(F)F)cc12)[C@H]1CCN(C(=O)[C@@H]2CCO2)C1` (atropisomer, axis not shown) [Compound 603], the half-inhibitory concentration (IC50) in assay [1] is at most 100 nM; in assay [2] (setting [6]) it was under 100 nM; in the assay with SW620 cells (KRAS G12V) (setting [4]), under 100 nM; with SW620 cells (KRAS G12V) (setting [7]), under 100 nM; in assay [3], 100 to 1000 nM.
With `CCN(c1nc(OC[C@@]23CCCN2C[C@H](F)C3)nc2c(F)c(-c3ccc(F)c4sc(N)c(C#N)c34)c(C(F)(F)F)cc12)[C@H]1C[C@@H]2CN(C)C(=O)N2C1` (atropisomer, axis not shown) [Compound 605], the IC50 in assay [1] is 100 to 1000 nM; in assay [2] (setting [6]) it was 100 to 1000 nM; in the assay with SW620 cells (KRAS G12V) (setting [4]) it was under 100 nM; in the assay with SW620 cells (KRAS G12V) (setting [7]), under 100 nM; in assay [3], 100 to 1000 nM.
As for `CCN(c1nc(OC[C@@]23CCCN2C[C@H](F)C3)nc2c(F)c(-c3ccc(F)c4sc(N)c(C#N)c34)c(C(F)(F)F)cc12)[C@H]1C[C@H](C)N(C(=O)[C@@H]2CC2(F)F)C1` (atropisomer, axis not shown) [Compound 751], the IC50 (in assay [2] (setting [6]); in the assay on SW620 cells (KRAS G12V) (setting [7])) was under 100 nM each time.
Regarding `N#Cc1c(N)sc2c(F)ccc(-c3c(C(F)(F)F)cc4c(N5CC6CC5CO6)nc(OC[C@@]56CCCN5C[C@H](F)C6)nc4c3F)c12` (stereo partly shown) [Compound 147], the 50% inhibitory concentration (IC50) in assay [2] (setting [8]) was 100 to 1000 nM; in the assay on SW620 cells (KRAS G12V) (setting [9]), under 100 nM.
As to `N#Cc1c(N)sc2c(F)ccc(-c3c(C(F)(F)F)cc4c(N5CCC[C@@H](O)C5)nc(OC[C@@]56CCCN5C[C@H](F)C6)nc4c3F)c12` [Compound 234], the IC50 is 100 to 1000 nM in assay [2] (setting [8]) and under 100 nM in the assay with SW620 cells (KRAS G12V) (setting [9]).
As to `C[C@@H]1[C@H](N(C)c2nc(OC[C@@]34CCCN3C[C@H](F)C4)nc3c(F)c(-c4ccc(F)c5sc(N)c(C#N)c45)c(C(F)(F)F)cc23)CCN1C(=O)C1CC1` [Compound 258], the IC50 in assay [2] (setting [8]) is 100 to 1000 nM; with SW620 cells (KRAS G12V) (setting [9]), under 100 nM.
In the case of `CCC(=O)N1CC[C@@H](N(C)c2nc(OC[C@@]34CCCN3C[C@H](F)C4)nc3c(F)c(-c4ccc(F)c5sc(N)c(C#N)c45)c(C(F)(F)F)cc23)[C@H]1C` [Compound 260], the results for the IC50 (in assay [2] (setting [8]); with SW620 cells (KRAS G12V) (setting [9])) were 100 to 1000 nM and under 100 nM, respectively.
In the case of `CCN(c1nc(OC[C@@]23CCCN2C[C@H](F)C3)nc2c(F)c(-c3ccc(F)c4sc(N)c(C#N)c34)c(Cl)cc12)[C@@H]1CCN(C(C)=O)[C@@H]1C` [Compound 323], the IC50 was 100 to 1000 nM in assay [2] (KRAS G12V-GppNHp/RAF1 RBD HTRF) and under 100 nM in the assay with SW620 cells (KRAS G12V) (setting [9]).
In the case of `CCN(c1nc(OC[C@@]23CCCN2C[C@H](F)C3)nc2c(F)c(-c3ccc(F)c4sc(N)c(C#N)c34)c(Cl)cc12)[C@@H]1CCN(C(=O)C2CC2)[C@@H]1C` [Compound 337], the IC50 is 100 to 1000 nM in assay [2] (KRAS G12V-GppNHp/RAF1 RBD HTRF) and under 100 nM in the assay with SW620 cells (KRAS G12V) (setting [9]).
The like results for `CN(Cc1cccnc1N)c1nc(OC[C@@]23CCCN2C[C@H](F)C3)nc2c(F)c(-c3ccc(F)c4sc(N)c(C#N)c34)c(C(F)(F)F)cc12` [Compound 390] were, in that order, under 100 nM and under 100 nM.
Take `N#Cc1cnn2c1CN(c1nc(OC[C@@]34CCCN3C[C@H](F)C4)nc3c(F)c(-c4ccc(F)c5sc(N)c(C#N)c45)c(C(F)(F)F)cc13)CC2` [Compound 392]: the 50% inhibitory concentration (IC50) was 100 to 1000 nM in assay [2] (KRAS G12V-GppNHp/RAF1 RBD HTRF) and under 100 nM in the assay on SW620 cells (KRAS G12V) (setting [9]).
With `CC(=O)N1CC[C@@H](N(C)c2nc(OC[C@@]34CCCN3C[C@H](F)C4)nc3c(F)c(-c4ccc(F)c5sc(N)c(C#N)c45)c(Cl)cc23)[C@H]1C` [Compound 398], the IC50 was 100 to 1000 nM in assay [2] (KRAS G12V-GppNHp/RAF1 RBD HTRF) and under 100 nM with SW620 cells (KRAS G12V) (setting [9]).
The matching figures for `C[C@@H]1[C@H](N(C)c2nc(OC[C@@]34CCCN3C[C@H](F)C4)nc3c(F)c(-c4ccc(F)c5sc(N)c(C#N)c45)c(C(F)(F)F)cc23)CC(=O)N1C` [Compound 440]: 100 to 1000 nM and under 100 nM.
The like results for `CCC(=O)N1C[C@@H](N(CC)c2nc(OC[C@@]34CCCN3C[C@H](F)C4)nc3c(F)c(-c4ccc(F)c5sc(N)c(C#N)c45)c(C(F)(F)F)cc23)C[C@H]1C` [Compound 442] were, in that order, 100 to 1000 nM and under 100 nM.
Consider `CCN(c1nc(OC[C@@]23CCCN2C[C@H](F)C3)nc2c(F)c(-c3ccc(F)c4sc(N)c(C#N)c34)c(C(F)(F)F)cc12)[C@H]1C[C@H](C)N(C(C)=O)C1` [Compound 463], for which the IC50 (in assay [2] (KRAS G12V-GppNHp/RAF1 RBD HTRF); in the assay on SW620 cells (KRAS G12V) (setting [9])) was under 100 nM in each case.
Consider `CCN(c1nc(OCC23CCCN2CC(F)C3)nc2c(F)c(-c3ccc(F)c4sc(N)c(C#N)c34)c(C(F)(F)F)cc12)C1CC(C)N(C(=O)N2CC(F)C2)C1` (stereo not shown) [Compound 759], for which the IC50 in assay [2] (setting [6]) is under 100 nM; in the assay with SW620 cells (KRAS G12V) (SW620 (KRAS G12V) cells, pERK HTRF, class symbols), under 100 nM.
